Results from patent publication US20240041042A1, “1-(PYRIDYL)-5-AZINYLPYRAZOLE DERIVATIVES, AND THEIR USE FOR CONTROL OF UNDESIRED PLANT GROWTH” (Bayer Aktiengesellschaft, priority 2020, published 2024).

Tests used:
Type in all cases: in vivo
Oryza sativa (ORYSA) = details: crop plant compatibility, 20 g/ha, effect vs untreated controls
Summary of the method: (§1)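 One-leaf-stage crops (2–3 wk post-sowing, sandy loam, greenhouse) sprayed on green parts; 0.5% additive, 600 l/ha water. Rated by eye ~3 wk later, % vs untreated; suffixes a/b/c mark different dosages.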

Zea mays (ZEAMX) = details: for Post-emergence action against ZEAMX in % (crop plant compatibility): 20 g/ha, effect in comparison to untreated controls; for Post-emergence action against ZEAMX in %: crop plant compatibility, 80 g/ha, effect vs untreated controls
Summary of the method: as §1

[1] = tested on: Amaranthus retroflexus (AMARE); assay: Post-emergence herbicidal action against AMARE
Summary of the method: (§2)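 Values are percent visual activity (0% like control, 100% plants dead) after about 3 weeks in the greenhouse. Treatment: post-emergence spray at one-leaf stage, 600 l/ha spray volume, 0.5% additive, doses 320 g/ha or lower.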

[2] = tested on: Digitaria sanguinalis (DIGSA); assay: Post-emergence herbicidal action against DIGSA; details: visual rating about 3 weeks after treatment
Summary of the method: as §2

[3] = tested on: Amaranthus retroflexus (AMARE); assay: Pre-emergence herbicidal action against AMARE; details: visual scoring after about 3 weeks vs untreated controls
Summary of the method: (§3)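 Pre-emergence soil-surface spray, WP/EC formulation, 0.5% additive, 600 l/ha water, rates of 320 g/ha or lower. Greenhouse, ~3 wk. Visual score, % of untreated control (100% = plants dead, 0% = like control).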

[4] = tested on: Polygonum convolvulus (POLCO); assay: Pre-emergence herbicidal action against POLCO
Summary of the method: as §3

Viola tricolor (VIOTR) [5] = assay: Pre-emergence herbicidal action against VIOTR
Summary of the method: as §3

[6] = tested on: Matricaria inodora (MATIN); assay: Pre-emergence herbicidal action against MATIN
Summary of the method: as §3

[7] = tested on: Echinochloa crus-galli (ECHCG); assay: Pre-emergence herbicidal action against ECHCG
Summary of the method: as §3

[8] = tested on: Alopecurus myosuroides (ALOMY); assay: Post-emergence herbicidal action against ALOMY; details: visual rating about 3 weeks after treatment vs untreated controls (100% = plants have died, 0% = like control plants)
Summary of the method: as §2

Setaria viridis (SETVI) [9] = assay: Pre-emergence herbicidal action against SETVI
Summary of the method: as §3

[10] = tested on: Verconica persica (VERPE); assay: Pre-emergence herbicidal action against VERPE; details: dosage 320 g/ha
Summary of the method: as §3

[11] = tested on: Pharbitis purpurea (PHBPU); assay: Post-emergence herbicidal action against PHBPU
Summary of the method: as §2

Avena fatua (AVEFA) [12] = assay: Pre-emergence herbicidal action against AVEFA; details: 320 g/ha, visual scoring after about 3 weeks vs untreated controls
Summary of the method: as §3

[13] = tested on: Verconica persica (VERPE); assay: Post-emergence herbicidal action against VERPE
Summary of the method: as §2

[14] = tested on: Digitaria sanguinalis (DIGSA); assay: Pre-emergence herbicidal action against DIGSA
Text: Seeds of monocotyledonous and dicotyledonous weed plants and crop plants are placed in plastic or organic planting pots and covered with soil. The compounds of the invention, formulated in the form of wettable powders (WP) or as emulsion concentrates (EC), are then applied to the surface of the covering soil as aqueous suspension or emulsion with addition of 0.5% additive at a water application rate equivalent to 600 l/ha. After the treatment, the pots are placed in a greenhouse and kept under good growth conditions for the trial plants. After about 3 weeks, the effect of the preparations is scored visually in comparison with untreated controls as percentages. For example, 100% activity=the plants have died, 0% activity=like control plants.
Tables A1 to A13 below show the effects of selected compounds of the general formula (I) on various harmful plants and at an application rate corresponding to 320 g/ha or lower, which were obtained by the experimental procedure mentioned above. The appendices “a”, “b” and “c” give differentiation by dosage used with otherwise the same harmful plants tested.

Lolium rigidum (LOLRI) [15] = assay: Pre-emergence herbicidal action against LOLRI
Summary of the method: as §3

Avena fatua (AVEFA) [16] = assay: Post-emergence herbicidal action against AVEFA; details: visual rating about 3 weeks after treatment
Summary of the method: as §2

[17] = tested on: Alopecurus myosuroides (ALOMY); assay: Pre-emergence herbicidal action against ALOMY; details: scored visually after about 3 weeks, 100% = plants have died
Summary of the method: as §3

Setaria viridis (SETVI) [18] = assay: Post-emergence herbicidal action against SETVI
Summary of the method: as §2

[19] = tested on: Echinochloa crus-galli (ECHCG); assay: Post-emergence herbicidal action against ECHCG
Summary of the method: as §2

[20] = tested on: Abutilon theophrasti (ABUTH); assay: Post-emergence herbicidal action against ABUTH; details: visual rating about 3 weeks after treatment vs untreated controls (100% = plants have died, 0% = like control plants)
Summary of the method: as §2

[21] = tested on: Matricaria inodora (MATIN); assay: Post-emergence herbicidal action against MATIN; details: dosage 320 g/ha
Summary of the method: as §2

Viola tricolor (VIOTR) [22] = assay: Post-emergence herbicidal action against VIOTR
Summary of the method: as §2

Lolium rigidum (LOLRI) [23] = assay: Post-emergence herbicidal action against LOLRI
Summary of the method: as §2

[24] = tested on: Pharbitis purpurea (PHBPU); assay: Pre-emergence herbicidal action against PHBPU
Summary of the method: as §3

[25] = 80 g/ha, visual rating about 3 weeks after treatment vs untreated controls (100% = plants have died, 0% = like control plants)
[26] = 80 g/ha, visual scoring after about 3 weeks vs untreated controls

Row | Compound | Post-emergence action against ORYSA in % (Oryza sativa (ORYSA)) [%] | Post-emergence action against ZEAMX in % (crop plant compatibility) (Zea mays (ZEAMX)) [%] | Pre-emergence action against AMARE in % ([3]; 80 g/ha) [%] | Pre-emergence action against AMARE in % ([3]; 320 g/ha) [%] | Pre-emergence action against POLCO in % ([4]; dosage 320 g/ha) [%] | Pre-emergence action against VIOTR in % (Viola tricolor (VIOTR) [5]; 320 g/ha, Viola tricolor) [%] | Pre-emergence action against VIOTR in % (Viola tricolor (VIOTR) [5]; dosage 80 g/ha) [%] | Pre-emergence action against MATIN in % ([6]; dosage 80 g/ha) [%] | Pre-emergence action against MATIN in % ([6]; dosage 320 g/ha) [%] | Pre-emergence action against ECHCG in % ([7]; dosage 320 g/ha) [%] | Post-emergence action against ALOMY in % ([8]; 80 g/ha) [%] | Pre-emergence action against SETVI in % (Setaria viridis (SETVI) [9]; dosage 320 g/ha) [%] | Pre-emergence action against VERPE in % [10] [%] | Post-emergence action against PHBPU in % ([11]; dosage 80 g/ha) [%] | Post-emergence action against VERPE in % ([13]; dosage 80 g/ha) [%] | Pre-emergence action against DIGSA in % [14, 26] [%] | Pre-emergence action against DIGSA in % ([14]; dosage 320 g/ha) [%] | Pre-emergence action against LOLRI in % (Lolium rigidum (LOLRI) [15]; dosage 320 g/ha) [%] | Post-emergence action against AVEFA in % (Avena fatua (AVEFA) [16]; 80 g/ha) [%] | Pre-emergence action against ALOMY ([17]; 320 g/ha) [%] | also measured
1 | O=C(COc1nn(-c2ncccc2F)c(-c2ccc(F)nc2)c1Br)OCc1ccccn1 [Example I-46] | 10 | 0 | 100 | 100 | 80 | 100 | 90 | 90 | 90 | 90 | 90 | 100 | 100 | 80 | 80 | 100 | 100 | 100 | 80 | 100 | Post-emergence action against ZEAMX in % (Zea mays (ZEAMX)): 10%; Post-emergence action against AMARE in % [1, 25]: 90%; Post-emergence action against DIGSA in % ([2]; 80 g/ha): 90%; Pre-emergence action against SETVI in % (Setaria viridis (SETVI) [9]; dosage 80 g/ha): 90%; Pre-emergence action against AVEFA in % (Avena fatua (AVEFA) [12]): 90%; Pre-emergence action against LOLRI in % (Lolium rigidum (LOLRI) [15]; dosage 80 g/ha): 90%; Pre-emergence action against ALOMY ([17]; 80 g/ha): 90%
2 | CCOC(=O)COc1nn(-c2ccccn2)c(-c2ccnc(F)c2)c1Br [Example I-01, Ethyl {[4-bromo-5-(2-fluoropyridin-4-yl)-1-(pyridin-2-yl)-1H-pyrazol-3-yl]oxy}acetate] |  |  | 80 | 90 | 90 | 90 |  |  | 100 | 90 | 100 | 100 | 90 | 80 | 80 | 80 | 100 | 100 | 90 | 100 | Post-emergence action against SETVI in % (Setaria viridis (SETVI) [18]; dosage 320 g/ha): 80%; Post-emergence action against AMARE in % ([1]; 320 g/ha, visual rating about 3 weeks after treatment): 80%; Post-emergence action against ECHCG in % ([19]; dosage 80 g/ha): 80%; Post-emergence action against ECHCG in % ([19]; dosage 320 g/ha): 90%; Post-emergence action against ALOMY in % ([8]; 320 g/ha): 100%; Post-emergence action against ABUTH in % ([20]; 320 g/ha): 80%; Post-emergence action against PHBPU in % ([11]; dosage 320 g/ha): 80%; Pre-emergence action against AVEFA in % (Avena fatua (AVEFA) [12]): 80%; Post-emergence action against VERPE in % ([13]; 320 g/ha, VERPE): 90%; Post-emergence action against MATIN in % [21]: 90%; Post-emergence action against AVEFA in % (Avena fatua (AVEFA) [16]; 320 g/ha): 100%; Post-emergence action against VIOTR in % (Viola tricolor (VIOTR) [22]; 80 g/ha): 90%; Post-emergence action against VIOTR in % (Viola tricolor (VIOTR) [22]; 320 g/ha): 100%; Post-emergence action against LOLRI in % (Lolium rigidum (LOLRI) [23]; dosage 80 g/ha): 80%; Post-emergence action against LOLRI in % (Lolium rigidum (LOLRI) [23]; dosage 320 g/ha): 90%
3 | CCOC(=O)COc1nn(-c2nc(F)ccc2F)c(-c2cncc(F)c2)c1Cl [Example I-163] |  |  |  | 90 | 80 | 100 | 90 | 90 | 90 | 90 |  | 100 | 80 | 80 |  | 90 | 100 | 90 |  | 90 | Pre-emergence action against PHBPU in % ([24]; dosage 80 g/ha): 90%; Pre-emergence action against PHBPU in % ([24]; dosage 320 g/ha): 90%; Post-emergence action against SETVI in % (Setaria viridis (SETVI) [18]; dosage 80 g/ha): 80%; Post-emergence action against SETVI in % (Setaria viridis (SETVI) [18]; dosage 320 g/ha): 90%; Post-emergence action against ECHCG in % ([19]; dosage 80 g/ha): 80%; Post-emergence action against ECHCG in % ([19]; dosage 320 g/ha): 80%; Post-emergence action against DIGSA in % ([2]; 320 g/ha): 80%; Pre-emergence action against POLCO in % ([4]; dosage 80 g/ha): 80%; Pre-emergence action against ECHCG in % ([7]; dosage 80 g/ha): 80%; Post-emergence action against ALOMY in % ([8]; 320 g/ha): 80%; Pre-emergence action against SETVI in % (Setaria viridis (SETVI) [9]; dosage 80 g/ha): 80%; Post-emergence action against PHBPU in % ([11]; dosage 320 g/ha): 90%; Post-emergence action against VIOTR in % (Viola tricolor (VIOTR) [22]; 320 g/ha): 80%; Post-emergence action against LOLRI in % (Lolium rigidum (LOLRI) [23]; dosage 320 g/ha): 80%
4 | CC(C)=NOC(=O)COc1nn(-c2ncccc2F)c(-c2ccc(F)nc2)c1Br [Example I-45] | 10 | 0 | 90 |  |  |  | 90 | 80 |  |  | 90 |  |  |  | 80 | 100 |  |  | 80 |  | Post-emergence action against ZEAMX in % (Zea mays (ZEAMX)): 10%; Post-emergence action against AMARE in % [1, 25]: 80%; Post-emergence action against DIGSA in % ([2]; 80 g/ha): 90%; Pre-emergence action against POLCO in % ([4]; dosage 80 g/ha): 90%; Pre-emergence action against ECHCG in % ([7]; dosage 80 g/ha): 90%; Post-emergence action against ABUTH in % ([20]; 80 g/ha): 80%; Pre-emergence action against ALOMY ([17]; 80 g/ha): 90%
